Here are results for 28 compounds from patent US20190389843A1, “PYRROLE mTORC INHIBITORS AND USES THEREOF” (Navitor Pharmaceuticals, Inc., priority 2016, published 2019).

Test [1] has as its system pS6K1 in MCF7 (measure of mTORC1 activity). In words: AlphaLISA Ultra pS6K1 assay. As to conditions: MCF-7 cells, 2 hours compound incubation. In kind it is cell-based. Here is the method: (§1) Assay Protocol: • 1. […] 12,000˜16,000 cells will be seeded in 36 μL medium per well. • 2. Change the culture medium with fresh medium and incubate for another 2 hours. • 3. Add 12 μL (4λ) compounds into the cell plate by HAMILTON. Final DMSO concentration is 0.5%. Incubate for 2 hours. • 4. Aspirate 38 μL by HAMILTON, 10 μL rest per well. • 5. Add 10 μL 2× lysis buffer using HAMILTON; total volume in wells is 20 μL. Allow cells to shake for 30 min. Cover plate by plastic foil and store plate at −80° C. up to analysis. • 6. […] Add 5 ul acceptor beads into assay plate and incubation for 2 hours • 8. Add 5 ul donor beads and incubation for 2 hours • 9. Count the plate by EnSpire Multimode Plate Reader

Test [2] deals with pAKT in MCF7 (measure of mTORC2 activity). Put plainly: AlphaLISA Ultra pAKT assay. In kind it is cell-based. As to conditions: MCF-7 cells, 2 hours compound incubation. On the procedure:
as §1, with “16,000˜20,000” for “12,000˜16,000”, “(4×)” for “(4λ)”
(In general: Bead proximity is the source of the signal in Alpha formats.)

The structures appear in SMILES notation. Where a name gives a salt, the structure may show the parent alone.

As for `Cc1c(CN2CCN(c3ccccc3Cl)CC2)cc(C(=O)N2CCN(c3ccccc3)C[C@@H]2C)n1CCCN` [Example I-29, (S)-(1-(3-aminopropyl)-4-((4-(2-chlorophenyl)piperazin-1-yl)methyl)-5-methyl-1H-pyrrol-2-yl)(2-methyl-4-phenylpiperazin-1-yl)methanone dihydrochloride salt], the half-inhibitory concentration (IC50) (usually the point on the concentration scale where inhibition reaches its midpoint) in test [1] (Homo sapiens, MCF7, 2 h) is 3 to 10 µM; in test [2] (Homo sapiens, MCF7, 2 h), greater than 10 µM.

For the compound `Cc1c(CN2CCN(c3ccccc3C#N)CC2)cc(C(=O)N2CCN(c3cc(C#N)ccn3)CC2)n1C` [Example I-65], the IC50 was 0.01 to 1 µM in test [1] (Homo sapiens, MCF7, 2 h) and greater than 3 µM in test [2] (Homo sapiens, MCF7, 2 h).

Consider `Cc1c(CN2CCN(c3ccccc3Cl)CC2)cc(C(=O)N2CCn3ncc(-c4ccccc4)c3C2)n1C` [Example I-35, (4-((4-(2-Chlorophenyl)piperazin-1-yl)methyl)-1,5-dimethyl-1H-pyrrol-2-yl)(3-phenyl-6,7-dihydropyrazolo[1,5-a]pyrazin-5(4H)-yl)methanone], for which the IC50 was 1 to 3 µM in test [1] (Homo sapiens, MCF7, 2 h) and greater than 10 µM in test [2] (Homo sapiens, MCF7, 2 h).

As to `Cc1c(CN2CCN(c3ccccc3Cl)CC2)cc(C(=O)N2CCN(c3cccc(N=[N+]=[N-])c3)C[C@@H]2C)n1C` [Example I-104, (S)-(4-(3-azidophenyl)-2-methylpiperazin-1-yl)(4-((4-(2-chlorophenyl)piperazin-1-yl)methyl)-1,5-dimethyl-1H-pyrrol-2-yl)methanone], the half-maximal inhibitory concentration (IC50) in test [1] (Homo sapiens, MCF7, 2 h) is 1 to 3 µM; in test [2] (Homo sapiens, MCF7, 2 h), greater than 5 µM.

`Cc1c(CN2CCN(c3ccccc3C#N)CC2)cc(C(=O)N2CCN(c3ccc4ncn(C)c4c3)CC2)n1C` [Example I-48]: the concentration for half-maximal inhibition (IC50) was 3 to 10 µM in test [1] (Homo sapiens, MCF7, 2 h) and greater than 10 µM in test [2] (Homo sapiens, MCF7, 2 h).

Consider `Cc1c(CN2CCN(c3ccccc3C#N)CC2)cc(C(=O)N2CCN(c3cccc(C#N)c3)C[C@@H]2C)n1C` [Example I-66], for which the IC50 is 0.01 to 1 µM in test [1] (Homo sapiens, MCF7, 2 h) and greater than 3 µM in test [2] (Homo sapiens, MCF7, 2 h).

`Cc1c(CN2CCN(c3ccccc3C#N)CC2)cc(C(=O)N2CCN(c3cc(Cl)ccn3)CC2)n1C` [Example I-68]: the half-maximal inhibitory concentration (IC50) is 0.01 to 1 µM in test [1] (Homo sapiens, MCF7, 2 h) and greater than 1 µM in test [2] (Homo sapiens, MCF7, 2 h).

For `C[C@H]1CN(c2cccc(C#N)c2)CCN1C(=O)c1cc(CN2CCN(c3ccccc3Cl)CC2)cn1C` [Example I-123, (S)-3-(4-(4-((4-(2-chlorophenyl)piperazin-1-yl)methyl)-1-methyl-1H-pyrrole-2-carbonyl)-3-methylpiperazin-1-yl)benzonitrile], the IC50 in test [1] (Homo sapiens, MCF7, 2 h) was 0.01 to 1 µM; in test [2] (Homo sapiens, MCF7, 2 h), greater than 1 µM.

For `Cc1c(CN2CCN(c3ccccc3Cl)CC2)cc(C(=O)N2CCN(c3ccc(F)cc3)CC2)n1C` [Example I-115, (4-((4-(2-Chlorophenyl)piperazin-1-yl)methyl)-1,5-dimethyl-1H-pyrrol-2-yl)(4-(4-fluorophenyl)piperazin-1-yl)methanone], the IC50 in test [1] (Homo sapiens, MCF7, 2 h) was 0.01 to 1 µM; in test [2] (Homo sapiens, MCF7, 2 h), greater than 3 µM.

As to `Cc1c(CN2CCN(c3ccccc3Cl)CC2)cc(C(=O)N2CCN(c3cccc(F)c3C#N)C[C@@H]2C)n1C` [Example I-102, (S)-2-(4-(4-((4-(2-chlorophenyl)piperazin-1-yl)methyl)-1,5-dimethyl-1H-pyrrole-2-carbonyl)-3-methylpiperazin-1-yl)-6-fluorobenzonitrile], the IC50 was 0.01 to 1 µM in test [1] (Homo sapiens, MCF7, 2 h) and greater than 10 µM in test [2] (Homo sapiens, MCF7, 2 h).

Take `Cc1c(CN2CCN(c3ccccc3C#N)CC2)cc(C(=O)N2CCCN(c3ccc(F)cc3)CC2)n1C` [Example I-50, 2-(4-((5-(4-(4-Fluorophenyl)-1,4-diazepane-1-carbonyl)-1,2-dimethyl-1H-pyrrol-3-yl)methyl)piperazin-1-yl)benzonitrile]: the half-maximal inhibitory concentration (IC50) in test [1] (Homo sapiens, MCF7, 2 h) was 1 to 3 µM; in test [2] (Homo sapiens, MCF7, 2 h), greater than 10 µM.

Consider `O=C(c1cc(CN2CCN(c3ccccc3Cl)CC2)cn1CCO)N1CCN(c2ccccc2)CC1` [Example I-142], for which the IC50 was 1 to 3 µM in test [1] (Homo sapiens, MCF7, 2 h) and greater than 3 µM in test [2] (Homo sapiens, MCF7, 2 h).

On to `C[C@H]1CN(c2cc(F)ccc2C#N)CCN1C(=O)c1cc(CN2CCN(c3ccccc3Cl)CC2)cn1C` [Example I-87, (S)-2-(4-(4-((4-(2-chlorophenyl)piperazin-1-yl)methyl)-1-methyl-1H-pyrrole-2-carbonyl)-3-methylpiperazin-1-yl)-4-fluorobenzonitrile], for which the IC50 is 0.01 to 1 µM in test [1] (Homo sapiens, MCF7, 2 h) and greater than 5 µM in test [2] (Homo sapiens, MCF7, 2 h).

Take `COc1cccc(N2CCN(C(=O)c3cc(CN4CCN(c5ccccc5C#N)CC4)c(C)n3C)CC2)n1` [Example I-69]: the half-inhibitory concentration (IC50) in test [1] (Homo sapiens, MCF7, 2 h) is 0.01 to 1 µM; in test [2] (Homo sapiens, MCF7, 2 h), greater than 3 µM.

In the case of `Cc1c(CN2CCN(c3ccccc3Cl)CC2)cc(C(=O)N2CCN(c3cccc(CCCN)c3)C[C@H]2C)n1C` [Example I-27, (R)-(4-(3-(3-aminopropyl)phenyl)-2-methylpiperazin-1-yl)(4-((4-(2-chlorophenyl)piperazin-1-yl)methyl)-1,5-dimethyl-1H-pyrrol-2-yl)methanone trifluoroacetate salt], the half-inhibitory concentration (IC50) in test [1] (Homo sapiens, MCF7, 2 h) is 1 to 3 µM; in test [2] (Homo sapiens, MCF7, 2 h) it was greater than 10 µM.

Turning to `Cc1c(CN2CCN(c3ccccc3Cl)CC2)cc(C(=O)N2CCCN(c3ccc(F)cc3)CC2)n1C` [Example I-49, (4-((4-(2-Chlorophenyl)piperazin-1-yl)methyl)-1,5-dimethyl-1H-pyrrol-2-yl)(4-(4-fluorophenyl)-1,4-diazepan-1-yl)methanone], the half-inhibitory concentration (IC50) in test [1] (Homo sapiens, MCF7, 2 h) is 1 to 3 µM; in test [2] (Homo sapiens, MCF7, 2 h), greater than 10 µM.

Turning to `Cc1c(CN2CCN(c3ccccc3C#N)CC2)cc(C(=O)N2CCN(c3ccccc3S(C)(=O)=O)CC2)n1C` [Example I-21], the IC50 in test [1] (Homo sapiens, MCF7, 2 h) was 1 to 3 µM; in test [2] (Homo sapiens, MCF7, 2 h), greater than 10 µM.

`Cc1c(CN2CCN(c3ccccc3Cl)CC2)cc(C(=O)N2CCN(c3cccc(F)c3)CC2)n1C` [Example I-108, (4-((4-(2-Chlorophenyl)piperazin-1-yl)methyl)-1,5-dimethyl-1H-pyrrol-2-yl)(4-(3-fluorophenyl)piperazin-1-yl)methanone]: the half-inhibitory concentration (IC50) in test [1] (Homo sapiens, MCF7, 2 h) is 0.01 to 1 µM; in test [2] (Homo sapiens, MCF7, 2 h), greater than 1 µM.

With `Cc1c(CN2CCN(c3ncccc3Cl)CC2)cc(C(=O)N2CCN(c3ccccn3)CC2)n1C` [Example I-44], the IC50 in test [1] is 0.01 to 1 µM; in test [2], greater than 3 µM.

Consider `Cn1cc(CN2CC3CN(c4ccccc4Cl)CC3C2)cc1C(=O)N1CCN(c2ccc(F)cc2)CC1` (centres unmarked) [Example I-131], for which the IC50 in test [1] (Homo sapiens, MCF7, 2 h) was 3 to 10 µM; in test [2] (Homo sapiens, MCF7, 2 h), greater than 10 µM.

Turning to `Cc1c(CN2CCN(c3ccccc3Cl)CC2)cc(C(=O)N2CCN(c3ncc(F)cn3)C[C@@H]2C)n1C` [Example I-77, (S)-(4-((4-(2-chlorophenyl)piperazin-1-yl)methyl)-1,5-dimethyl-1H-pyrrol-2-yl)(4-(5-fluoropyrimidin-2-yl)-2-methylpiperazin-1-yl)methanone], the 50% inhibitory concentration (IC50) in test [1] (Homo sapiens, MCF7, 2 h) is 1 to 3 µM; in test [2] (Homo sapiens, MCF7, 2 h), greater than 5 µM.

Take `Cc1c(CN2CCN(c3ccccc3Cl)CC2)cc(C(=O)N2CCN(c3ccc(F)c(Cl)c3)CC2)n1C` [Example I-82, (4-(3-chloro-4-fluorophenyl)piperazin-1-yl)(4-((4-(2-chlorophenyl)piperazin-1-yl)methyl)-1,5-dimethyl-1H-pyrrol-2-yl)methanone]: the half-maximal inhibitory concentration (IC50) in test [1] (Homo sapiens, MCF7, 2 h) is 1 to 3 µM; in test [2] (Homo sapiens, MCF7, 2 h), greater than 10 µM.

As for `C[C@H]1CN(c2cc(F)cc(F)c2)CCN1C(=O)c1cc(CN2CCN(c3ccccc3Cl)CC2)cn1C` [Example I-94, (S)-(4-((4-(2-chlorophenyl)piperazin-1-yl)methyl)-1-methyl-1H-pyrrol-2-yl)(4-(3,5-difluorophenyl)-2-methylpiperazin-1-yl)methanone], the IC50 is 0.01 to 1 µM in test [1] (Homo sapiens, MCF7, 2 h) and greater than 5 µM in test [2] (Homo sapiens, MCF7, 2 h).

Turning to `Cc1c(CN2CCN(c3ncccc3Cl)CC2)cc(C(=O)N2CCN(c3ccc(F)cc3)C[C@@H]2C)n1C` [Example I-92, (S)-(4-((4-(3-chloropyridin-2-yl)piperazin-1-yl)methyl)-1,5-dimethyl-1H-pyrrol-2-yl)(4-(4-fluorophenyl)-2-methylpiperazin-1-yl)methanone], the concentration for half-maximal inhibition (IC50) is 0.01 to 1 µM in test [1] (Homo sapiens, MCF7, 2 h) and greater than 1 µM in test [2] (Homo sapiens, MCF7, 2 h).

For the compound `C[C@H]1CN(c2ccccc2C#N)CCN1C(=O)c1cc(CN2CCN(c3ccccc3C#N)CC2)cn1C` [Example I-58], the half-maximal inhibitory concentration (IC50) is 0.01 to 1 µM in test [1] (Homo sapiens, MCF7, 2 h) and greater than 10 µM in test [2] (Homo sapiens, MCF7, 2 h).

For `Cc1c(CN2CCN(c3ccccc3Cl)CC2)cc(C(=O)N2CCN(c3ccc4[nH]ccc4c3)C[C@@H]2C)n1C` [Example I-33, (S)-(4-(1H-indol-5-yl)-2-methylpiperazin-1-yl)(4-((4-(2-chlorophenyl)piperazin-1-yl)methyl)-1,5-dimethyl-1H-pyrrol-2-yl)methanone trifluoroacetate salt], the IC50 is 1 to 3 µM in test [1] (Homo sapiens, MCF7, 2 h) and greater than 10 µM in test [2] (Homo sapiens, MCF7, 2 h).

As for `Cc1c(CN2CCN(c3ccccc3C#N)CC2)cc(C(=O)N2CCN(c3cccc(C#N)n3)CC2)n1C` [Example I-43], the IC50 in test [1] (Homo sapiens, MCF7, 2 h) was 0.01 to 1 µM; in test [2] (Homo sapiens, MCF7, 2 h) it was greater than 3 µM.

Regarding `CCn1cc(CN2CCN(c3ccccc3Cl)CC2)cc1C(=O)N1CCN(c2ccccc2)CC1` [Example I-143], the IC50 in test [1] (Homo sapiens, MCF7, 2 h) was 0.01 to 1 µM; in test [2] (Homo sapiens, MCF7, 2 h), greater than 3 µM.
